For the test, the target named is T1, HCV NS3 helicase (Hepatitis C virus genotype 1b, UniProt P26663).
T1 construct: full-length NS3 (1-631), purified at Array BioPharma
Nature of the test: HCV Helicase Prompt FRET Assay (Example A). It counts as biochemical. Particulars: read-out: IC50 Activity. A digest of the protocol: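 Initial unwinding rates, monitored as FAM fluorescence gain (ex 485, em 535) over ~30 min at room temperature, gave IC50 via 4- or 5-parameter logistic fits. Reactions: 50 nM quenched duplex, 250 nM capture strand, 300 μM ATP, 5–6 nM NS3 1-631 after 5 min compound preincubation, MOPS pH 7.0 buffer, 2% DMSO.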

Setting [1] is: HCV NS3 helicase, tables do not say whether Example A or Example B assay.
Where [2] appears, read: Table 21, compounds made using Scheme 28.

Where two headings read alike, the source gives them in different places.

T1 sequence (P26663 1027-1657): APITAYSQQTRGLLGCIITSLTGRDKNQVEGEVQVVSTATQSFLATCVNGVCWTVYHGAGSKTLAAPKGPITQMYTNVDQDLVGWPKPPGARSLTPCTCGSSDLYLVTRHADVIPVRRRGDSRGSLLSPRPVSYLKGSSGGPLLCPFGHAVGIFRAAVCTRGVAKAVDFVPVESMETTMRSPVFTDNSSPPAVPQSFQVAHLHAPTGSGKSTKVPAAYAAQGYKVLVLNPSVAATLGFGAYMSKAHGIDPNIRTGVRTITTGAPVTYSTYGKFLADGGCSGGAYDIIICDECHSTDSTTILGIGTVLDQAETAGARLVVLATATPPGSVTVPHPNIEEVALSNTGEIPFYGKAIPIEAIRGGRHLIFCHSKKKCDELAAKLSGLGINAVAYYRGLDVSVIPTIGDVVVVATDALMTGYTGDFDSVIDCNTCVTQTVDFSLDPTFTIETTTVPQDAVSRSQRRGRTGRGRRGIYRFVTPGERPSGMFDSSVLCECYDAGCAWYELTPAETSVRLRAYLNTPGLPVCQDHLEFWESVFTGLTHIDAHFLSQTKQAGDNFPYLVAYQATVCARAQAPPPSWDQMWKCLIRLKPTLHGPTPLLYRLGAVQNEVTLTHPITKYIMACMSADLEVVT

`Cn1c(C(=O)Cc2ccc(-c3ccccc3)cc2)c(CC(=O)O)c2ccccc21` [Example 250]: the half-inhibitory concentration (IC50) under setting [1] was 10 to 50 µM.

On to `COc1cccc(-c2cccc(Cc3[nH]c4ccccc4c3CC(=O)O)c2)c1` [Example 298], for which the IC50 under setting [1] was less than 10 µM.

Turning to `COC(=O)C(c1ccc([N+](=O)[O-])cc1C)C1CN(c2ccc([N+](=O)[O-])cc2C)c2ccc(Br)cc21` (stereo not shown) [Example 403], the IC50 (numeric bound instead of class symbol) was more than 20 µM.

As to `O=C(Cc1cn(Cc2csc3ccc(Cl)cc23)c2ccccc12)NS(=O)(=O)C1CC1` [Example 198], the IC50 under setting [1] was in the range of 10 to 50 µM.

Regarding `Nc1cccc(-c2ccc3c(CC(=O)O)cn(Cc4csc5ccc(Cl)cc45)c3c2)c1` [Example 363], the 50% inhibitory concentration (IC50) under setting [1] is less than 10 µM.

On to `Cc1cc([N+](=O)[O-])ccc1-n1cc(CC(=O)O)c2ccccc21` [Example 377], for which, under setting [1], the half-maximal inhibitory concentration (IC50) is more than 50 µM.

As to `Cc1ccccc1CN(C)c1ccc(-n2cc(CC(=O)O)c3ccccc32)cc1` [Example 181], under setting [1], the half-inhibitory concentration (IC50) is less than 10 µM.

Regarding `CN(c1ccc(Cn2cc(CC(=O)O)c3ccccc32)cc1)c1cc(Cl)ccc1Cl` [Example 574], the IC50 under setting [2] is less than 10 µM.

Regarding `CN(c1cccc(Cn2cc(CC(=O)O)c3ccccc32)c1)c1ccccc1Cl` [Example 523], under setting [1], the IC50 is less than 10 µM.

As for `Cc1cc([N+](=O)[O-])ccc1-n1cc(C(=O)C(N)=O)c2cc(Br)ccc21` [Example 384], the IC50 under setting [1] was more than 50 µM.

For the compound `CC(C)Nc1cc(NC(C)C)cc(-c2ccc3c(CC(=O)O)cn(Cc4csc5ccc(Cl)cc45)c3c2)c1` [Example 649], where the note is “Table 31, compounds made using Schemes 38-45”, the IC50 is less than 10 µM.

As to `O=C(O)Cc1c(C(=O)c2ccc(-c3ccccc3Cl)cc2)[nH]c2ccccc12` [Example 254], the 50% inhibitory concentration (IC50) under setting [1] was less than 10 µM.

For the compound `CC(C)c1ccc(Cn2cc(C(NC(=O)OC(C)(C)C)C(=O)O)c3ccccc32)cc1` (stereo not shown) [Example 419], under setting [1], the IC50 was 10 to 50 µM.

`Nc1cc(N)cc(-c2ccc3c(CC(=O)O)cn(Cc4csc5c(Cl)cc(F)cc45)c3c2)c1` [Example 726]: the IC50 (Table 36, compounds made using Scheme 54) was less than 10 µM.

Regarding `CN(c1cccc(Cn2cc(CC(=O)O)c3ccccc32)c1)c1ccccc1C(F)(F)F` [Example 529], the IC50 under setting [1] was less than 10 µM.

Consider `CCOC(=O)Cc1cn(Cc2ccc(Oc3cccc(OCC)c3)cc2)c2cc(-c3cc(N)cc(N)c3)ccc12` [Example 609], for which the IC50 (Table 25, compounds made using Scheme 32) was 10 to 50 µM.

Consider `O=C(O)Cc1cn(Cc2ccc(Oc3ccc(Cl)c(Cl)c3)cc2)c2ccccc12` [Example 507], for which, under setting [1], the IC50 is less than 10 µM.

For the compound `COC(=O)C(C)c1cn(-c2ccc([N+](=O)[O-])cc2C)c2ccc(Br)cc12` (stereo not shown) [Example 390], under setting [1], the IC50 is more than 50 µM.

With `O=C(Cc1cn(Cc2cccc(OCc3ccccc3)c2)c2ccc(OCc3ccccc3)cc12)NS(=O)(=O)C1CC1` [Example 194], the IC50 under setting [1] was less than 10 µM.

In the case of `CN(c1ccc(Cn2cc(CC(=O)O)c3ccccc32)cc1)c1cc(C(F)(F)F)cc(C(F)(F)F)c1` [Example 582], under setting [2], the IC50 was less than 10 µM.

On to `CC(C)(C)OC(=O)N(c1cc(Cl)cc2c(Cn3cc(CC(=O)O)c4ccc(Br)cc43)csc12)C1CC1` [Example 774], for which, where the note is “Table 38, compounds made using Scheme 56, Scheme 57 and Scheme 61”, the IC50 was less than 10 µM.

`O=C(O)Cc1cn(Cc2cccc(Oc3ccc(F)cc3)c2)c2ccc(OCc3ccccc3)cc12` [Example 120]: the IC50 under setting [1] was less than 10 µM.

For the compound `COc1ccccc1Oc1ccc(Cn2cc(CC(=O)O)c3ccccc32)cc1` [Example 500], the IC50 under setting [1] was less than 10 µM.

Take `O=C(O)Cc1cn(Cc2csc3ccc(Cl)cc23)c2cc(-c3ccc(Cl)cc3)ccc12` [Example 753]: where the note is “Table 37, compounds made using Scheme 55”, the IC50 is more than 50 µM.

For `O=C(O)Cc1c(Cc2csc3ccc(Cl)cc23)n(Cc2csc3ccc(Cl)cc23)c2cc(OCc3ccccc3)ccc12` [Example 348], under setting [1], the IC50 was less than 10 µM.

`O=C(O)Cc1c(C(=O)c2ccc(-c3ccccc3C(F)(F)F)cc2)[nH]c2ccccc12` [Example 269]: the IC50 under setting [1] fell in the range of 10 to 50 µM.

Regarding `COc1ccc(N(C)c2cccc(Cn3cc(CC(=O)O)c4ccccc43)c2)cc1OC` [Example 544], the IC50 under setting [1] is less than 10 µM.

In the case of `O=C(O)Cc1cn(Cc2cccc(Oc3cc(C(F)(F)F)cc(C(F)(F)F)c3)c2)c2ccccc12` [Example 492], under setting [1], the IC50 was less than 10 µM.

As a reminder, the IC50 is the point on the concentration scale where inhibition reaches its midpoint.

(Values after patent publication US20090047246A1, “NOVEL INHIBITORS OF HEPATITIS C VIRUS REPLICATION” (InterMune, Inc., priority 2007, published 2009).)
